Test results: patent US20070270392A1, “Use of a Cyclopentenone Prostaglandin for Delaying the Onset and/or Preventing the Continuation of Labour” (Imperial College Innovations Limited, priority 2003, published 2007)
Residues, ends and D or L forms follow the SMILES beside them. *: point of attachment. Cbz = O=C(OCc1ccccc1)*

Assays:
NF-κB [1] = assay: EMSA of NF-κB DNA binding in nuclear extracts of treated amnion cells; format: cell-based, human
Description: (§1) Electro-mobility shift assay (EMSA) analysis of NF-κB DNA binding in nuclear protein extracts from (A) myometrial cells, (B) L+amnion cells, and (C) L− amnion cells treated with 15dPGJ2 or vehicle for 2 h+/−IL-1b stimulation (15 min). Consensus kB probe used to assess NF-κB DNA binding, and consensus Oct-1 probe used as control.
EMSA analysis of nuclear protein extracts from amnion cells treated with 15dPGJ2+/−GW9662 or vehicle for 2 h followed by IL-1β stimulation (15 min). Consensus kB probe used to assess NFκB DNA binding, consensus Oct-1 probe used as control.
(§2) EMSA analysis of nuclear protein extracts from (A) myometrial cells, and (B) amnion cells treated with PGA1 or vehicle for 2 h followed by IL-1b stimulation (15 min). Consensus κB probe used to assess NFκB DNA binding, consensus Oct-1 probe used as control. For supershift analysis, extracts were preincubated with antibodies against p50 or p65.
(§3) EMSA analysis of nuclear protein extracts from (A) L− amnion cells and (B) myometrial cells treated with vehicle, PGE2 or IL-1β. Consensus κB probe used.
(§4) Placentae were obtained from patients at term either at elective Caesarean section prior to labour (L−) or following spontaneous labour onset and vaginal delivery (L+). Amnion cells were prepared as described in Bennett et al., (1989). Briefly, the amnion was separated from the placenta, washed 3× in PBS, cut into strips, and incubated in 0.51 mM EDTA in PBS for 15 min. The strips were washed in PBS 2× and digested with 2.5 mg/ml dispase in serum-free DMEM for 35 min at 37° C. The amnion was then shaken vigorously in DMEM, 10% FCS to dissociate the cells, the remaining strips discarded, and the cell suspension pelleted at 175 g for 10 min and cultured in DMEM, 10% FCS (Sigma), 1% L-glutamine, 1% penicillin-streptomycin.
(§5) Nuclear and cytosolic protein extracts were obtained from cultured amnion cells as described by Schreiber et al (1989). For nuclear/cytosolic fractionation, confluent cell monolayers were scraped and lysed using a buffer containing 10 mM HEPES, 10 mM KCl, 0.1 mM EDTA, 0.1 mM EGTA, 2 mM DTT, 1% (v/v) NP-40 and complete protease inhibitor tablets (CPIs, Roche), diluted to manufacturer's instructions. Cell lysates were incubated on ice for 10 min and NP-40 added to a final concentration of 1% (v/v). Lysates were vortexed for 10 secs and centrifuged for 30 secs at 4° C., 12000 g. The supernatants were retained as the cytosolic protein extracts. The pellets were resuspended in buffer containing 10 mM HEPES, 10 mM KCl, 0.1 mM EDTA, 0.1 mM EGTA, 2 mM DTT, 400 mM NaCl, 1% NP-40 (v/v) and CPIs. Samples were shaken vigorously for 15 min in an ice bath. The nuclear protein extracts were obtained in the supernatant following a 5 min centrifugation at 4° C., 12000 g.
(§6) Sense and antisense strands (175 nmole/ml each) were incubated in annealing buffer (10 mM Tris-HCl pH7.5, 100 mM NaCl, 1 mM EDTA) for 10 min at 65° C., and allowed to cool at room temperature for 2 h. 3.5 pmole double-stranded oligonucleotides were end-labelled with 0.37 MBq ^32P(γATP) by incubating for 30 min at 37° C. with T4 polynucleotide kinase. Labelled oligonucleotides were recovered by centrifugation at […] for 2 min through MicroSpin G-25 or G-50 sephadex columns (Amersham Biosciences). […]

NF-κB [2] = assay: Western immunoblot of NF-κB activation (p65, p50, IκB) in amnion cells; format: cell-based, human; conditions: L−
Description: (§7) Western immunoblots of nuclear or cytosolic protein extracts from (A) myometrial cells, (B) L− amnion cells, and (C) L+amnion cells treated with 15dPGJ2 or vehicle for 2 h+/−IL-1, stimulation (15 min). Blots probed with antibodies against p65, p50 or IκBα.
as §4, §5
Protein samples (20-70 μg) were mixed with Laemmli sample buffer (1:1) containing β-mercaptoethanol (5%), and boiled for 5 min. Proteins were then separated by SDS-PAGE (12-14% gels) and transferred onto PVDF membrane (Amersham Pharmacia Biotech). The membranes were blocked overnight in 5% non-fat milk prepared in PBS-T buffer, at 4° C. The blots were incubated with the primary antibody in 1% non-fat milk in PBS-T buffer for 1 h, and washed three times (10 min each) in PBS-T with vigorous shaking. The blots were then incubated with HRP-conjugated secondary antibody (diluted 1:2000 in 1% non-fat milk in PBS-T buffer) for 1 h and washed three times (10 min each) in PBS-T. Signal detection was achieved using enhanced chemi-luminescence (ECL plus system, Amersham Pharmacia Biotech) according to manufacturer's instructions. […]

NF-κB [3] = assay: EMSA of NF-κB DNA binding in nuclear extracts of treated myometrial cells; format: cell-based, human; conditions: myometrial cells; for IL-1β-induced NF-κB DNA binding: IL-1β stimulation 15 min
Description: as §1
Consensus κB probe used to assess NF-κB DNA binding, consensus Oct-1 probe used as control. For supershift analysis, extracts were preincubated with antibodies against p50 or p65.
EMSA analysis of nuclear protein extracts from myometrial cells treated with (A) WY-14643 or vehicle, and (B) high doses of troglitazone, WY-14643 or vehicle for 2 h followed by IL-1b stimulation (15 min). Consensus κB probe used to assess NFκB DNA binding, consensus Oct-1 and Sp-1 probes used as controls.
as §2
(§8) Analysis of nuclear protein extracts from myometrial cells treated with PGE2 or vehicle for 2 h+/−TNFα or IL-1b stimulation (15 min). (A) EMSA using consensus κB probe. (B) Western immunoblot probing for nuclear p65.
as §3
(§9) Myometrial tissue was collected at term from the upper margin of uterine incision at the time of lower segment caesarean section either prior to the onset of labour (L−) or […] (L+). L+ samples were collected by Dr Mark Johnson and Dr S Soorrana at Chelsea & Westminster Hospital. Myometrial tissue was dissected, rinsed in PBS, and digested in serum-free DMEM containing 15 mg/ml collagenase 1A (Sigma), 15 mg/ml collagenase X, and 50 mg/ml bovine serum albumin for 45 min at 37° C. The cell suspension was filtered through a cell strainer, centrifuged at 400 g for 5 min, and the pellet re-suspended and plated out in DMEM, 10% FCS (Helena BioScience), 1% L-glutamine, 1% penicillin-streptomycin. Cells were used between passage numbers 1-4.
as §5, §6

NF-κB [4] = assay: Western immunoblot of NF-κB activation (p65, p50, IκB) in myometrial cells; format: cell-based, human; parameters: Accumulation of phosphorylated IκBα: dose or concentration left out as unconfirmed
Description: as §7
Western immunoblot of nuclear or cytosolic protein extracts from myometrial cells treated with PGA1 or vehicle for 2 h followed by IL-1β stimulation (15 min). Blots probed with antibodies against p65 or IκBa.
as §8
Western immunoblots of cytosolic extracts from myometrial cells (A) treated with 15dPGJ2 for 2 h+/−IL1b for 15 min; probed for IKK, and (B) treated with […] 15dPGJ2, […] MG132 or vehicle for 2 h, +/−IL-1β for 15 min; probed for IκBα.
as §9, §5
Protein samples (20-70 μg) were mixed with Laemmli sample buffer (1:1) containing β-mercaptoethanol (5%), and boiled for 5 min. Proteins were then separated by SDS-PAGE (12-14% gels) and transferred onto PVDF membrane (Amersham Pharmacia Biotech). The membranes were blocked overnight in 5% non-fat milk prepared in PBS-T buffer, at 4° C. The blots were incubated with the primary antibody in 1% non-fat milk in PBS-T buffer for 1 h, and washed three times (10 min each) in PBS-T with vigorous shaking. The blots were then incubated with HRP-conjugated secondary antibody (diluted 1:2000 in 1% non-fat milk in PBS-T buffer) for 1 h and washed three times (10 min each) in PBS-T. Signal detection was achieved using enhanced chemi-luminescence (ECL plus system, Amersham Pharmacia Biotech) according to manufacturer's instructions.
30-50 μg protein extracts were subjected to SDS-PAGE and Western immuno-blotting. Secondary antibodies were IgG-HRP and ECL Plus detection kit (Amersham Pharmacia Biotech, Amersham Place, Little Chalfont, Bucks, HP7 9NA) was used for visualisation.

NF-κB [5] = assay: NF-κB-dependent luciferase reporter (κB.BG.Luc) in myometrial cells; format: cell-based, human; conditions: treated 2 h, IL-1β 1 ng/ml 6 h
Description: Myometrial cells were transiently transfected with the NFκB-dependent reporter construct κB.BG.Luc, treated with 15dPGJ2 or vehicle for 2 h, +/−IL-1β(1 ng/ml) for 6 h. […] Values are normalised for b-gal reporter activity. (NS=nonstimulated).
Myometrial cells were transfected with […] κB.BG.Luc reporter and 200 ng PPAR-γ expression vector and treated with 15d-PGJ2 for 2 h followed by IL-1β (1 ng/ml) for 6 h. Values are normalised for β-galactosidase reporter activity. (NS=nonstimulated).
as §9
pGL3.6 κB.BG.luc: a NF-κB-dependent reporter construct with 6 copies of the NF-κB binding site.
Cells were co-transfected with the renilla vector pRL-CMV or a β-galactosidase vector pCH110 as internal controls for transfection efficiencies.

PPARα = conditions: GAL4 chimera transfection system; cited from earlier work

CCCCC(C)(C)[C@H](O)/C=C/[C@H]1[C@H](O)CC(=O)[C@@H]1C/C=C\CCCC(=O)O [16,16-Dimethyl-PGE2]
Induction of NF-κB DNA binding by the compound alone (NF-κB [1]; L− amnion cells): does not induce
IL-1β-induced NF-κB DNA binding (NF-κB [1]; L− and L+ amnion cells, treated 2 h, IL-1β stimulation 15 min): did not inhibit
IL-1β-induced p65 nuclear translocation (NF-κB [2]): did not inhibit
Synergy with IL-1β or TNFα on NF-κB activity (NF-κB [3]): nor did it synergise
IL-1β-induced NF-κB DNA binding (NF-κB [3]; treated 2 h): did not inhibit
TNFα- and IL-1β-induced NFκB activation (NF-κB [3]; treated 2 h, TNFα or IL-1b 15 min): does not inhibit
Induction of NF-κB DNA binding / stimulation of NF-κB activity by the compound alone (NF-κB [3]; listed as 16,16-dimethyl-PGE2): neither did it stimulate
Induction of NF-κB DNA binding / stimulation of NF-κB activity by the compound alone (NF-κB [3]; listed as PGE2): does not induce
IL-1β-induced p65 nuclear translocation (NF-κB [4]): did not inhibit

CN(CCOc1ccc(C[C@H](Nc2ccccc2C(=O)c2ccccc2)C(=O)O)cc1)c1ccccn1 [GW1929, reference compound]
IL-1β-induced NF-κB DNA binding (NF-κB [3]; treated 2 h): failed to inhibit
IL-1-induced NF-κB transcriptional activity (NF-κB [5]): not

O=C(Nc1ccccc1)c1cc([N+](=O)[O-])ccc1Cl [GW-9662]
Alleviation of 15d-PGJ2 inhibition of NF-κB DNA binding (NF-κB [1]; amnion cells treated with 15d-PGJ2 in the presence of GW-9662): failed to alleviate

CC(C)C[C@@H](C=O)NC(=O)[C@H](CC(C)C)NC(=O)[C@H](CC(C)C)NC(=O)OCc1ccccc1 [MG132, reference compound] (Cbz-Leu-Leu-Leu-aldehyde)
IL-1β-induced IκBα degradation (NF-κB [4]): prevented
Accumulation of phosphorylated IκBα (NF-κB [4]; 2 h, IL-1β 15 min): resulted in the accumulation

Cc1cccc(Nc2cc(Cl)nc(SCC(=O)O)n2)c1C [WY-14643, reference compound]
Doses that can transactivate PPARα (PPARα): 5 to 25 µM
NF-κB DNA binding (NF-κB [3]; 10-100 μM concentrations): had no effect
IL-1-induced NF-κB transcriptional activity (NF-κB [5]): not
